We go through three compounds from patent US20240342137A1 (priority 2023, published 2024).

A short description of one data set: physchem. Particulars: water.
Data set [1] has as its system other adrenergic, opioid or GABA (Gamma-AminoButyric Acid class) sedative and analgesic agents. The conditions noted are these: cited from earlier work.
In data set [2] the test system is xylazine sedative effects. The conditions noted are these: in vivo; cited from earlier work.
The target of another data set is alpha-1 adrenoceptors. Particulars: cited from earlier work.
Another data set deals with T1, alpha-2 adrenoceptors.
T1 construct: rows headed: Alpha-2 Ki; other: [3H]clonidine displacement, brain membrane; other: alpha-2; lower sensitivity compared to atipamezole; other: alpha-2, vs atipamezole
Particulars: cited from earlier work; for IC50: read-out: half-maximal inhibitory concentration.

For data set [3] the following is noted: human, in vivo, cited from earlier work.
For data set [4] the following is noted: human, in vivo, 20 mg, cited from earlier work.
The subject of data set [5] is other neurotransmitter receptors including I2 and 5-HT. Particulars: cited from earlier work.
For data set [6] the following is noted: human, in vivo; cited from earlier work.
The format of data set [7] is physicochemical. The conditions noted are these: pH 6.

Converted amounts (≈) assume the structure as drawn. Read-outs that look alike come from different tables or passages of the source.

In the case of `CCC1(c2cnc[nH]2)Cc2ccccc2C1` [Atipamezole, 4-(2-ethyl-2,3-dihydro-1H-inden-2-yl)-1H-imidazole], in “physchem”, the solubility is ~70 µg/mL (≈ 330 µM). Further, the “effect on other adrenergic, opioid or GABA sedative and analgesic agents” value in data set [1] is given as “No effect on other adrenergic, opioid or GABA (Gamma-AminoButyric”. In addition, in [2], the “breathing rate reversal of xylazine sedative effects” value is recorded as “Rapid breathing rate reversal of xylazine sedative effects within a few” and the “concentrations of atipamezole for restoring breathing rate” value was 10 to 20 ng/mL. The Ki at alpha-1 adrenoceptors was 13300 nM. Besides, at alpha-2 adrenoceptors, the Ki was 1.6 nM and the IC50 was 1.6 nM. Besides, in [3] (iv, 15 ug/kg), the T1/2 is 2.04 h and the Tmax is on record as 0.25 h. Also, in data set [3] (iv, 50 ug/kg), the T1/2 was 1.92 h. Besides, the T1/2 in data set [3] (iv, 150 ug/kg) was 1.83 h. Further, the elimination half-life result in data set [3] (iv) was “approximately 2 hour”. In addition, the elimination half-life entry in data set [3] was “Short elimination half-life (~2 h in humans) improving safety”. Moreover, in [4], the AUC is 85 ng·h/mL, the Cmax is given as 23 ng/mL, the T1/2 is recorded as 2.0 h and the Tmax is reported as 0.76 h. In addition, in [4] (iv), the area under the curve (AUC) is 231 ng·h/mL, the Cmax is 145 ng/mL and the T1/2 is reported as 1.8 h. Also, in [4] (po), the AUC was 4.2 ng·h/mL, the Cmax was 1.2 ng/mL, the T1/2 is 2.0 h and the Tmax is given as 0.82 h. Besides, the “effect on other neurotransmitter receptors including I2 and 5-HT” value in data set [5] is on record as “Negligible or no effect on other neurotransmitter receptors including I2”. Further, in [6], the “increase in heart rate and blood pressure” value is recorded as 14-17 mmHg (which may benefit those who are under deep respiratory; the “safety in humans by dose” value was “safe up to 100 mg dose”; the “untoward or Severe Adverse Event (SAE)” value was “At 30-100 mg/dose in human with no major untoward or Severe Adverse”. The “final atipamezole concentration when fully dissolved” value in [7] is 375.8 mM.

As to `COC(=O)[C@@H]1[C@H]2C[C@H]3c4[nH]c5ccccc5c4CCN3C[C@@H]2CC[C@@H]1O` [Yohimbine], on alpha-1 adrenoceptors, the Ki was 5130 nM.

For the compound `c1ccc2c(c1)OCC(C1=NCCN1)O2` (stereo not drawn) [Idazoxan], the inhibitory constant (Ki) on alpha-1 adrenoceptors was 3960 nM. Moreover, on alpha-2 adrenoceptors, the Ki was 148 nM and the IC50 was 148 nM.

For orientation: solubility means the dissolved amount per volume that the medium holds. Low values mean a poorly soluble substance, high ones a readily soluble substance. The Ki is the equilibrium dissociation constant of an inhibitor or competing ligand from its target. As usually defined, the Tmax is the time from dosing to the highest level. The AUC is concentration integrated over time. By Cmax is commonly meant the highest concentration seen after dosing.
